From patent US4629736A, “Fatty acid derivatives and process of producing them” (Yamanouchi Pharmaceutical Co., Ltd., priority 1983, dated 1986) come the findings set out here.

The test system of series [1] is Fibrin-clot (lysis by Urokinase). Briefly: Fibrinolytic action (fibrin-clot lysis assay), clot lysis time relative to Urokinase alone. The series is classed as biochemical. On the procedure: FIBRINOLYTIC ACTION (Fibrin-clot lysis assay)
Fibrinogen (1 mg/50 μl, made by Green Cross Corporation) and various amounts of the test compounds, were added to test tubes, followed to make a total volume of 850 μl with cold Tris-buffered saline (20 mM Tris-buffer, pH 7.4, containing 140 mM NaCl). To the solutions were added 100 μl of Urokinase solution (30 CTA unit/0.1 ml) and 50 μl of thrombin solution (2 NIH units/50 μl) to make final clot volume of 1 ml each in test tubes in an ice bath. The tubes were quickly shaken to mix the reagents well and immediately placed in a 37° C. water bath, and the clot lysis time was recorded. Test compounds were dissolved in physiological saline, except contrast one dissolved in physiological saline containing 10% cremophore and 0.15% ethanol. Thus, by measuring the time of clot lysis, the relative activity of the fibrinolytic action of the test compound to that of Urokinase using the system of Urokinase alone as the control was determined. The results of the pharmacological effect of the compounds of this invention are shown in Table 1 below together with that of 3-hexadecanoyloctadecanoyl-β-alanyl-L-phenylalanine having the formula [drawing 15] which is one of the compounds having the most excellent fibrinolytic action in known compounds.

The next series in a line: Solubility in saline. The series is classed as physicochemical. The text has this:
In particular, the compounds of this invention have been discovered after investigating the point of water solubility, which has never been attained in known acylpeptides. That is, the compounds of this invention have very improved water solubility, whereby sufficient pharmacological effect of the compounds can be expected and also the preparations of the compounds, such as the application to injections, and the like, can be easily performed. For example, the solubility of compound of Example 21 is more than 5 mg/ml saline.

In another series the test system is mice. Briefly: Acute toxicity, intravenous injection to mice. As to conditions: mouse. The series is classed as in vivo. How it is done: In addition, the acute toxicity of the compound in Example 21 was measured as follows.
The mark [2] stands for this setting: at 1 × 10^-5 M, solvent physiological saline solution.

Turning to `CCCCCCCCCCOCCNC(=O)[C@H](CC(=O)O)NC(=O)COCCOCCCCCCCCCC` [Example 14, (S)-3-(3,6-dioxahexadecanamido)-3-(3-oxatridecylcarbamoyl)propionic acid], the “Fibrinolytic Action, maximum relative activity (%) with the activity of Urokinase alone being defined to 100%” value in series [1] (setting [2]) worked out at 150%.
Consider `CCCCCCCCCCCCCCCC(CC(=O)N[C@@H](Cc1ccccc1)C(=O)O)OC(=O)COCCOCCOCCOCCCC` (stereo partly drawn) [Example 19, N-[3-(3,6,9,12-tetraoxahexadecanoyloxy)octadecanoyl]-L-phenylalnine], for which, in series [1] (setting [2]), the “Fibrinolytic Action, maximum relative activity (%) with the activity of Urokinase alone being defined to 100%” value was 130-140%.
Take `CCCCCCCCCCCCCCCC(CC(=O)N[C@@H](Cc1ccccc1)C(=O)O)OC(=O)COCCOCCOCCCCCC` (stereo partly drawn) [Example 20, N-[3-(3,6,9-trioxapentadecanoyloxy)octadecanoyl]-L-phenylalanine]: in series [1] (setting [2]), the “Fibrinolytic Action, maximum relative activity (%) with the activity of Urokinase alone being defined to 100%” value is 130-150%.
With `CCCCCCCCCCCCCC(CC(=O)N[C@@H](Cc1ccccc1)C(=O)O)OC(=O)COCCOCCCCCCCCCC` (stereo partly drawn) [Example 21, N-[3-(3,6-dioxahexadecanoyloxy)hexadecanoyl]-L-phenylalanine], the “Fibrinolytic Action, maximum relative activity (%) with the activity of Urokinase alone being defined to 100%” value in series [1] (at 3 × 10^-6 M, solvent physiological saline solution) is on record as 150-160%. The solubility entry in “Solubility in saline” was “more than 5 mg/ml saline”. Moreover, in the series with mice, the “acute toxicity (dose without death)” value is “higher than 200 mg/40 ml saline/kg”.
As for `CCCCCCCCCCCCCCCC(CC(=O)N[C@@H](CO)C(=O)O)OC(=O)COCCOCCCCCCCCCC` (stereo partly drawn) [Example 22, N-[3-(3,6-dioxahexadecanoyloxy)octadecanoyl]-L-serine], the “Fibrinolytic Action, maximum relative activity (%) with the activity of Urokinase alone being defined to 100%” value in series [1] (at 3 × 10^-5 M, solvent physiological saline solution) was 160%.
Regarding `CCCCCCCCCCCCCCCC(=O)C(CCCCCCCCCCCCCCC)CC(=O)NCCC(=O)N[C@@H](Cc1ccccc1)C(=O)O` (stereo partly drawn) [Known compound, 3-hexadecanoyloctadecanoyl-β-alanyl-L-phenylalanine, reference compound], in series [1] (at 1 × 10^-4 M, solvent Cremophore solution), the “Fibrinolytic Action, maximum relative activity (%) with the activity of Urokinase alone being defined to 100%” value is on record as 140-150%.
